How the values were obtained:
[1] = test system: Salmonella; assay: Decontamination of Salmonella contaminated alfalfa seeds by Ca-hypochlorite; assay type: in vivo, Salmonella enterica serovar Typhimurium; conditions: 20,000 ppm
Method: FIGS. 18A-B are graphs illustrating the influence of decontamination by Ca-hypochlorite, of Salmonella contaminated alfalfa seeds, on the concentration of Salmonella. The seeds were contaminated with Salmonella by dipping in 10^2-[…] CFU/ml. Decontamination was performed with 20,000 ppm Ca-hypochlorite. The number of Salmonella on the seeds (CFU/g seeds) was detected immediately after the contamination (A), and in the sprouts (B) after 3 days of sprouting (CFU/g sprouts). The results are representing the average and standard error of 3 independent experiments in duplicates. When bacteria were not detected, enrichment of the samples was performed in BPW. (*) Growth after enrichment. (−) No growth.
(§1) Seed sterilization by Ca-hypochlorite: To assess the ability of Ca-hypochlorite to inactivate the Salmonella enterica serovar Typhimurium (STm) strain SL1344 on the seeds, alfalfa seeds were pre-contaminated with increasing concentrations of STm cells. […] After 4 days the alfalfa sprouts were extracted and the STm concentration in the extract was analyzed. Salmonella Typhimurium SL1344 survival in sprouts in the presence or absence of Bacillus BX-77 was analyzed after disinfection by Ca-hypochlorite of alfalfa seeds contaminated by 10^2 or 10^5 CFU of STm. […]

[2] = test system: Salmonella Typhimurium SL1344; assay: Salmonella survival in alfalfa sprouts with BX-77 and/or Ca-hypochlorite disinfection; assay type: in vivo
Excerpt: FIG. 19 is a graph illustrating Salmonella Typhimurium SL1344 survival in sprouts in the presence of BX-77 or absence of BX-77 after disinfection by Ca-hypochlorite of Salmonella contaminated seeds. Alfalfa seeds were contaminated by 10^2 or 10^5 CFU of Salmonella, dried, decontaminated by Ca-hypochlorite and seeded in the presence or absence of BX-77. Salmonella infected seeds were used as controls in the absence or the presence of BX-77. The experiment was repeated twice and each set included 5 cups.
as §1, with “cells. Breifly, seeds (1 g) 15 were contaminated with the desired number of bacteria by adding 20 μL of STm suspended in SDDW and mixing by a sterile plastic spreader and then the seeds were dried at room-temp for 30 minutes.” for “cells.”

Which results are given for [Ca+2].[O-]Cl.[O-]Cl [Ca-hypochlorite, calcium hypochlorite]?
efficiency of decontamination ([1]; higher Salmonella concentrations, 3 day sprouts): not efficient; efficiency of decontamination ([1]; low Salmonella concentrations up to 10^3/ml, seeds and 3 day sprouts): Salmonella was not detected even after sprouting; killing of Salmonella cells ([2]; seeds infected by 10^2 CFU of Salmonella): killed all the Salmonella cells; reduction of Salmonella growth ([2]; seeds infected by 10^5 CFU of Salmonella): 2 log CFU/g
